Data on one compound can be found in publication PMC8213385, “Development of a Fluorescent Assay to Search New Drugs Using Stable tdTomato-Leishmania, and the Selection of Galangin as a Candidate With Anti-Leishmanial Activity” (Frontiers in Cellular and Infection Microbiology, 2021).

For experiment [1], the system named is promastigotes of L. amaz/tc3. As to the kind of experiment: Transmission electron microscopy of treated promastigotes. In kind it is cell-based, Leishmania (Leishmania) amazonensis. The settings on record: exposed to the IC50, 48 h. The method, then:
Ultrastructural alterations in Leishmania induced by flavonoids with anti-leishmanial activity were analyzed by transmission electron microscopy (TEM). […] The control was a culture of L. amaz/tc3 incubated in complete RPMI-1640 medium. After 48 h of incubation, samples of L. amaz/tc3 promastigotes from each culture were fixed in modified Karnovsky’s solution (formaldehyde [2.66%], glutaraldehyde [1.66%]) and PBS 0.1M (pH 7,4), and incubated overnight at 4°C. The fixed samples were post-fixed with a 1/1 solution of PBS/2% osmium tetroxide (OsO4), overnight. Then the material was dehydrated and included in Spurr (Pelco, USA). Ultrathin sections were cut with an ultramicrotome (MT1, Sorvall, USA), mounted on copper grids, and contrasted with uranyl acetate (PELCO, USA) and lead citrate.

In experiment [2] the test system is Raw 264.7 macrophages infected with L. amaz/tc3. As to the kind of experiment: Cytokine production (IL-12p70, IL-10) by macrophages, ELISA of culture supernatant. The experiment is classed as cell-based. The settings on record: 20 µM, 48 h. The method, then:
Then, the culture supernatant was recovered and maintained at -80°C until use. The culture supernatant concentrations of IL-12p70 and IL-10 (BD Biosciences, San Diego, USA) were determined by ELISA following the specifications of the supplier. Each condition was performed in quadruplicate.
(An ELISA detects its analyte on a solid surface through an enzyme-linked reagent.)

Experiment [3] has as its system promastigotes of L. (L.) donovani. On the set-up: method as in Kaur et al., 2010. The settings on record: GAL isolated from Alpinia galanga rhizomes ref Kaur et al., 2010; read-out: IC50 against promastigotes of L. (L.) donovani; cited from earlier work.

As to `O=c1c(O)c(-c2ccccc2)oc2cc(O)cc(O)c12` [GAL, Galangin], the “Ultrastructural alterations in promastigotes (TEM)” value in experiment [1] was “dramatic changes in the mitochondrial structure”. Further, the “IL-10 concentration in culture supernatant” value in experiment [2] (between treated groups) is recorded as “did not show significant differences”. The “IL-12 p70 in culture supernatant, mean (range)” value in experiment [2] (infected macrophages, infected non-stimulated controls 72.11 pg/ml, p < 0.01) was determined as 232.2 pg/mL. Besides, in experiment [3], the IC50 was 100 µM.

In general, IC50 refers to the concentration at which inhibition is half-maximal.
